Experimental data: patent publication US20160333419A1, “GENE SIGNATURES ASSOCIATED WITH SENSITIVITY TO MDM2 INHIBITORS” (DAIICHI SANKYO COMPANY, LIMITED, priority 2014, published 2016)

Key:
Assay in all cases: OncoPanel cytotoxicity assay
Assay type in all cases: cell-based
[1] = system: SW1088; details: Homo sapiens, 72 hour incubation
Procedure, shortened: (§1)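 Cells grown in RPMI 1640 with 10% FBS (or a special medium) at 37° C, 5% CO2 were treated 24 hours after seeding for 72 hours with 10 concentrations (3.16-fold dilutions, 0.1% DMSO final). Nuclei were dye-stained and imaged; IC50 was fit from percent of control relative cell count.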

[2] = system: HeLa; details: Homo sapiens, 72 hour incubation
Procedure, shortened: as §1

[3] = system: A7; details: Homo sapiens, 72 hour incubation
Procedure, shortened: as §1

[4] = system: TE 381.T; details: Homo sapiens, 72 hour incubation
Procedure, shortened: as §1

[5] = system: SHP-77; details: Homo sapiens, SHP77, 72 hour incubation
Procedure, shortened: as §1

[6] = system: HLF; details: Homo sapiens, 72 hour incubation
Procedure, shortened: as §1

[7] = system: HOS; details: Homo sapiens, 72 hour incubation
Procedure, shortened: as §1

[8] = system: LS-174T; details: Homo sapiens, LS174T, 72 hour incubation
Procedure, shortened: as §1

[9] = system: C-4 I; details: Homo sapiens, 72 hour incubation
Procedure, shortened: as §1

[10] = system: SW954; details: Homo sapiens, SW 954, 72 hour incubation
Procedure, shortened: as §1

[11] = system: SW579; details: Homo sapiens, 72 hour incubation
Procedure, shortened: as §1

[12] = system: HMCB; details: Homo sapiens, 72 hour incubation
Procedure, shortened: as §1

[13] = system: SNU-423; details: Homo sapiens, 72 hour incubation
Procedure, shortened: as §1

[14] = system: CFPAC-1; details: Homo sapiens, 72 hour incubation
Procedure, shortened: as §1

[15] = system: SH-4; details: Homo sapiens, 72 hour incubation
Procedure, shortened: as §1

[16] = system: BHT-101; details: Homo sapiens, 72 hour incubation
Procedure, shortened: as §1

[17] = system: Colo 320 HSR; details: Homo sapiens, 72 hour incubation
Procedure, shortened: as §1

[18] = system: J82; details: Homo sapiens, 72 hour incubation
Procedure, shortened: as §1

[19] = system: AGS; details: Homo sapiens, 72 hour incubation
Procedure, shortened: as §1

[20] = system: RD; details: Homo sapiens, 72 hour incubation
Procedure, shortened: as §1

[21] = system: 647-V; details: Homo sapiens, 72 hour incubation
Procedure, shortened: as §1

[22] = system: BeWo; details: Homo sapiens, 72 hour incubation
Procedure, shortened: as §1

[23] = system: BE(2)C; details: Homo sapiens, 72 hour incubation
Procedure, shortened: as §1

[24] = system: MV-4-11; details: Homo sapiens, MV4-11, 72 hour incubation
Procedure, shortened: as §1

[25] = system: C-4 II; details: Homo sapiens, 72 hour incubation
Procedure, shortened: as §1

[26] = system: HCT-116; details: Homo sapiens, 72 hour incubation
Procedure, shortened: as §1

[27] = system: CRO-AP2; details: Homo sapiens, 72 hour incubation
Procedure, shortened: as §1

[28] = system: MDA MB 231; details: Homo sapiens, 72 hour incubation
Procedure, shortened: as §1

[29] = system: SW1116; details: Homo sapiens, SW 1116, 72 hour incubation
Procedure, shortened: as §1

[30] = system: U-87 MG; details: Homo sapiens, 72 hour incubation
Procedure, shortened: as §1

[31] = system: NCI-H508; details: Homo sapiens, 72 hour incubation
Procedure, shortened: as §1

[32] = system: HUH-6 Clone 5; details: Homo sapiens, HUH-6-clone5, 72 hour incubation
Procedure, shortened: as §1

[33] = system: C-33A; details: Homo sapiens, 72 hour incubation
Procedure, shortened: as §1

[34] = system: A431; details: Homo sapiens, A-431, 72 hour incubation
Procedure, shortened: as §1

[35] = system: MX1; details: Homo sapiens, 72 hour incubation
Procedure, shortened: as §1

[36] = system: RPMI-7951; details: Homo sapiens, 72 hour incubation
Procedure, shortened: as §1

[37] = system: Daoy; details: Homo sapiens, 72 hour incubation
Procedure, shortened: as §1

[38] = system: T47D; details: Homo sapiens, 72 hour incubation
Procedure, shortened: as §1

[39] = system: A172; details: Homo sapiens, A 172, 72 hour incubation
Procedure, shortened: as §1

Compound	IC50 [1] [µM]	IC50 [2] [µM]	IC50 [3] [µM]	IC50 [4] [µM]	IC50 [5] [µM]	IC50 [6] [µM]	IC50 [7] [µM]	IC50 [8] [µM]	IC50 [9] [µM]	IC50 [10] [µM]	IC50 [11] [µM]	IC50 [12] [µM]	IC50 [13] [µM]	IC50 [14] [µM]	IC50 [15] [µM]	IC50 [16] [µM]	IC50 [17] [µM]	IC50 [18] [µM]	IC50 [19] [µM]	IC50 [20] [µM]	also measured
CC[C@@H]1CNC2(CC2)CN1C(=O)[C@@H]1C[C@@H](F)CN1C(=O)C1=C(C(C)C)N2C(=N[C@@](C)(c3ccc(Cl)nc3)[C@H]2c2ccc(Cl)c(F)c2)S1 [Compound A, [(5R,6S)-5-(4-Chloro-3-fluorophenyl)-6-(6-chloropyridin-3-yl)-6-methyl-3-(propan-2-yl)-5,6-dihydroimidazo[2,1-b][1,3]thiazol-2-yl][(2S,4R)-2-{[(6R)-6-ethyl-4,7-diazaspiro[2.5]oct-7-yl]carbonyl}-4-fluoropyrrolidin-1-yl]methanone]	> 40	> 40	> 40	37.3	> 40	> 40	> 40	0.497	> 40	> 40	> 40	> 40	> 40	> 40	0.59	> 40	> 40	> 40	0.139	> 40	IC50 [21]: > 40 µM; IC50 [22]: 1.49 µM; IC50 [23]: 35.3 µM; IC50 [24]: 0.372 µM; IC50 [25]: > 40 µM; IC50 [26]: 0.653 µM; IC50 [27]: 0.204 µM; IC50 [28]: > 40 µM; IC50 [29]: > 40 µM; IC50 [30]: 0.261 µM; IC50 [31]: > 40 µM; IC50 [32]: 0.329 µM; IC50 [33]: > 40 µM; IC50 [34]: > 40 µM; IC50 [35]: 39 µM; IC50 [36]: > 40 µM; IC50 [37]: > 40 µM; IC50 [38]: 32.3 µM; IC50 [39]: 0.795 µM
CC1(C)CCC2(CC1)N[C@@H](C(=O)N[C@@H]1CC[C@@H](C(N)=O)OC1)[C@H](c1ccnc(Cl)c1F)[C@]21C(=O)Nc2cc(Cl)ccc21 [Compound B, (3′R,4′S,5′R)—N-[(3R,6S)-6-carbamoyltetrahydro-2H-pyran-3-yl]-6″-chloro-4′-(2-chloro-3-fluoropyridin-4-yl)-4,4-dimethyl-2″-oxo-1″,2″-dihydrodispiro[cyclohexane-1,2′-pyrrolidine-3′,3″-indole]-5′-carboxamide]	9.02	> 10	3.59	9.73	8.32	> 10	> 10	0.0615	7.21	8.33	9.61	5.49	> 10	> 10	0.116	> 10	> 10	> 10	0.0116	7.2	IC50 [21]: > 10 µM; IC50 [22]: 0.317 µM; IC50 [23]: 9.03 µM; IC50 [24]: 0.0254 µM; IC50 [25]: 9.1 µM; IC50 [26]: 0.0505 µM; IC50 [27]: 0.0191 µM; IC50 [28]: > 10 µM; IC50 [29]: > 10 µM; IC50 [30]: 0.0376 µM; IC50 [31]: > 10 µM; IC50 [32]: 0.0719 µM; IC50 [33]: 5.49 µM; IC50 [34]: > 10 µM; IC50 [35]: 9.16 µM; IC50 [36]: 8.63 µM; IC50 [37]: > 10 µM; IC50 [38]: 7.76 µM; IC50 [39]: 0.0689 µM
